The record followed here is patent US10570116B2, “1,4-dicarbonyl-piperidyl derivatives” (Merck Patent GmbH, priority 2015, dated 2020).

The EC50 is the concentration that produces a half-maximal response. One may read the IC50 as the midpoint of a concentration-inhibition curve.

Test [1] deals with Tankyrases. As to the kind of experiment: Measurement of cellular inhibition of Tankyrase (Axin2 level, Luminex based assay, DLD1 cells). Particulars: increase of Axin2 level, 24 hours, read-out: EC50 [M] TNKS cellular assay. It is filed as cell-based.
The target of test [2] is TNKS1 (Homo sapiens (Human), UniProt O95271). In words: biochemical. The class given is biochemical. Particulars: GST-tagged Tnks-1 (1023-1327 aa); read-out: IC50 [M] TNKS1 ELISA.
Test [3] has as its target TNKS2 (Homo sapiens (Human), UniProt Q9H2K2). As to the kind of experiment: biochemical. The class given is biochemical. The settings on record: GST-tagged Tnks-2 (873-1166 aa); read-out: IC50 [M] TNKS2 ELISA.

On to `COC(=O)c1ccc(C(=O)C2CCN(C(=O)CC(C)(C)Cc3nc4c(C)cccc4c(=O)[nH]3)CC2)cc1C` [Compound C40, 4-{1-[3,3-Dimethyl-4-(8-methyl-4-oxo-3,4-dihydro-quinazolin-2-yl)-butyryl]-piperidine-4-carbonyl}-2-methyl-benzoic Acid Methyl Ester], for which the EC50 in test [1] was determined as 2.9e-09 M. In addition, the IC50 was 1.5e-09 M in test [2] and 4.7e-09 M in test [3].
In the same order, the values of `Cc1cc(F)cc2c(=O)[nH]c(C[C@@H](C)CC(=O)N3CCC(C(=O)c4cccc(C(=O)O)c4)CC3)nc12` [Compound C46, 3-{1-[(R)-4-(6-Fluoro-8-methyl-4-oxo-3,4-dihydro-quinazolin-2-yl)-3-methyl-butyryl]-piperidine-4-carbonyl}-benzoic Acid] are 1e-05 M, 8.2e-09 M and 2.8e-09 M.
For `Cn1cc(C(=O)C2CCN(C(=O)CC(C)(C)Cc3cc4ccccc4c(=O)[nH]3)CC2)cn1` [Compound C49, 3-{2,2-Dimethyl-4-[4-(1-methyl-1H-pyrazole-4-carbonyl)-piperidin-1-yl]-4-oxo-butyl}-2H-isoquinolin-1-one], in that order: 1.3e-09 M, 3e-10 M and 2.1e-10 M.
Turning to `COC(=O)c1cccc(C(=O)C2CCN(C(=O)CC(C)(C)Cc3nc4c(C)cccc4c(=O)[nH]3)CC2)c1` [Compound C36, 3-{1-[3,3-Dimethyl-4-(8-methyl-4-oxo-3,4-dihydro-quinazolin-2-yl)-butyryl]-piperidine-4-carbonyl}-benzoic acid methyl ester], the EC50 in test [1] was 3.4e-09 M. The values for the IC50 in test [2] and in test [3] were 7.9e-10 M and 2.1e-09 M, respectively.
For `COc1ccc(C(=O)C2CCN(C(=O)CC(C)(C)Cc3nc4c(ccn4C)c(=O)[nH]3)CC2)cn1` [Compound C16, 2-{4-[4-(6-Methoxy-pyridine-3-carbonyl)-piperidin-1-yl]-2,2-dimethyl-4-oxo-butyl}-7-methyl-3,7-dihydro-pyrrolo[2,3-d]pyrimidin-4-one], in that order: 4.1e-09 M, 6.1e-10 M and 4.1e-10 M.
As for `Cn1cc(C(=O)C2CCN(C(=O)CC3(Cc4nc5ccccc5c(=O)[nH]4)CC3)CC2)cn1` [Compound C12, 2-(1-{2-[4-(1-Methyl-1H-pyrazole-4-carbonyl)-piperidin-1-yl]-2-oxo-ethyl}-cyclopropylmethyl)-3H-quinazolin-4-one], in test [1], the EC50 was determined as 2.3e-08 M. Besides, the IC50 is 2.2e-09 M in test [2] and 1e-09 M in test [3].
Regarding `COc1ccc(C(=O)C2CCN(C(=O)COCc3nc4ccccc4c(=O)[nH]3)CC2)cn1` [Compound C25, 2-{2-[4-(6-Methoxy-pyridine-3-carbonyl)-piperidin-1-yl]-2-oxo-ethoxymethyl}-3H-quinazolin-4-one], in test [1], the EC50 was 6.4e-08 M. The IC50 in test [2] was 3.6e-08 M; in test [3] it was 1.2e-08 M.
Take `Cc1cc(C(=O)C2CCN(C(=O)CC(C)(C)Cc3nc4c(C)cccc4c(=O)[nH]3)CC2)ccc1C(=O)O` [Compound C41, 4-{1-[3,3-Dimethyl-4-(8-methyl-4-oxo-3,4-dihydro-quinazolin-2-yl)-butyryl]-piperidine-4-carbonyl}-2-methyl-benzoic Acid]: in test [1], the EC50 came out at 1.1e-08 M. Moreover, the IC50 in test [2] turned out to be 5.9e-10 M; in test [3], 8.8e-10 M.
For `Cc1cc(C(=O)C2CCN(C(=O)CC(C)(C)Cc3nc4ccccc4c(=O)[nH]3)CC2)ccc1C(=O)O` [Compound C39, 4-{1-[3,3-Dimethyl-4-(4-oxo-3,4-dihydro-quinazolin-2-yl)-butyryl]-piperidine-4-carbonyl}-2-methyl-benzoic Acid], in that order: 1.3e-07 M, 4.3e-10 M and 6.1e-10 M.
For `COC(=O)c1ccc(C(=O)C2CCN(C(=O)CC(C)(C)Cc3nc4ccccc4c(=O)[nH]3)CC2)cc1` [Compound C32, 4-{1-[3,3-Dimethyl-4-(4-oxo-3,4-dihydro-quinazolin-2-yl)-butyryl]-piperidine-4-carbonyl}-benzoic Acid Methyl Ester], in that order: 1.1e-07 M, 6.8e-10 M and 5.6e-10 M.
In the case of `CN(CCc1nc2ccccc2c(=O)[nH]1)C(=O)N1CCC(C(=O)c2cnn(C)c2)CC1` [Compound C31, 4-(1-Methyl-1H-pyrazole-4-carbonyl)-piperidine-1-carboxylic Acid methyl-[2-(4-oxo-3,4-dihydro-quinazolin-2-yl)-ethyl]-amide], the EC50 in test [1] worked out at 2.3e-08 M. Also, the results for the IC50 in test [2] and in test [3] were 3e-09 M and 2.2e-09 M, respectively.
`COc1ccc(C(=O)C2CCN(C(=O)CCC(C)(C)c3nc4ccccc4c(=O)[nH]3)CC2)cc1` [Compound C15, 2-{4-[4-(4-Methoxy-benzoyl)-piperidin-1-yl]-1,1-dimethyl-4-oxo-butyl}-3H-quinazolin-4-one]: the EC50 in test [1] is 6.2e-08 M. Also, the results for the IC50 in test [2] and in test [3] were 9.2e-09 M and 5e-09 M, respectively.
Turning to `C[C@H](CC(=O)N1CCC(C(=O)c2cnn(C)c2)CC1)Cc1cc2ccccc2c(=O)[nH]1` [Compound C50, 3-{(S)-2-Methyl-4-[4-(1-methyl-1H-pyrazole-4-carbonyl)-piperidin-1-yl]-4-oxo-butyl}-2H-isoquinolin-1-one], the EC50 in test [1] is 6.8e-10 M. For the same compound, the concentration for half-maximal inhibition (IC50) in test [2] was determined as 4.4e-10 M; in test [3], 2.4e-10 M.
Consider `Cn1cc(C(=O)C2CCN(C(=O)CC(C)(C)Cc3nc4ccccc4c(=O)[nH]3)CC2)cn1` [Compound C1, 2-{2,2-Dimethyl-4-[4-(1-methyl-1H-pyrazole-4-carbonyl)-piperidin-1-yl]-4-oxo-butyl}-3H-quinazolin-4-one], for which the EC50 in test [1] was determined as 4.5e-09 M. Besides, the IC50 in test [2] was 5.7e-10 M; in test [3], 3.7e-10 M.
In the same order, the values of `CC(C)(CC(=O)N1CCC(C(=O)c2ccc(C(=O)O)cc2)CC1)Cc1cc2ccccc2c(=O)[nH]1` [Compound C52, 4-{1-[3,3-Dimethyl-4-(1-oxo-1,2-dihydro-isoquinolin-3-yl)-butyryl]-piperidine-4-carbonyl}-benzoic Acid] are 8e-08 M, 3.3e-10 M and 2.5e-10 M.
Consider `CC(C)n1cc(C(=O)C2CCN(C(=O)CC(C)(C)Cc3nc4c(ccn4C)c(=O)[nH]3)CC2)cn1` [Compound C19, 2-{4-[4-(1-Isopropyl-1H-pyrazole-4-carbonyl)-piperidin-1-yl]-2,2-dimethyl-4-oxo-butyl}-7-methyl-3,7-dihydro-pyrrolo[2,3-d]pyrimidin-4-one], for which the EC50 in test [1] came to 9.3e-09 M. Besides, the IC50 in test [2] is 1.3e-09 M; in test [3], 5.8e-10 M.
Turning to `Cc1cc(F)cc2c(=O)[nH]c(C[C@H](C)CC(=O)N3CCC(C(=O)c4cccc(C(=O)O)c4)CC3)nc12` [Compound C47, 3-{1-[(S)-4-(6-Fluoro-8-methyl-4-oxo-3,4-dihydro-quinazolin-2-yl)-3-methyl-butyryl]-piperidine-4-carbonyl}-benzoic Acid], the EC50 in test [1] was 3e-09 M. Besides, the IC50 in test [2] came out at 3.5e-10 M; in test [3], 2.2e-10 M.
For `CC(C)(CC(=O)N1CCC(C(=O)c2cccc(C(=O)O)c2)CC1)Cc1cc2ccccc2c(=O)[nH]1` [Compound C53, 3-{1-[3,3-Dimethyl-4-(1-oxo-1,2-dihydro-isoquinolin-3-yl)-butyryl]-piperidine-4-carbonyl}-benzoic Acid], in that order: 8.7e-07 M, 1.1e-09 M and 6.9e-10 M.
